# Measurements: article PMC8595653, “Activation of specific bitter taste receptors by olive oil phenolics and secoiridoids” (Scientific Reports, 2021)
# Entries after “also recorded” stand apart in the source; their conditions may differ.
# Key:
# [1] = target: T1, TAS2R16 (Homo sapiens, UniProt Q9NYV7); assay: Calcium mobilization functional assay, TAS2R16; type: cell-based; details: 10 mM, versus empty pcDNA vector
# T1 construct: first 45 amino acids of rat somatostatin type 3 receptor (SSTR3) export tag (N); expressed in transfected cells; host or cells: HEK293E
# T1 sequence (Q9NYV7 whole entry): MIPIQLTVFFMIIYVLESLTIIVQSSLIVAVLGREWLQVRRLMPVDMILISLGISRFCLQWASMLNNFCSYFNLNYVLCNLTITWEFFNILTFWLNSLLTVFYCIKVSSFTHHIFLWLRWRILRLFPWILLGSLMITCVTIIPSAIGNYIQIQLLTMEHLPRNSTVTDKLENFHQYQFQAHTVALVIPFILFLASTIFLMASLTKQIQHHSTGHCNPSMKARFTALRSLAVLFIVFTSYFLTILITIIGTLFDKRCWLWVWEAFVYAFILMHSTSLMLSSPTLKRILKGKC
# From the text: (§1) All constructs were confirmed by DNA sequencing.
# (§2) Data from single dose experiments were collected as duplicates. […] Data represent mean ± SD.
# [2] = target: T2, TAS2R50 (Homo sapiens, UniProt P59544); assay: Calcium mobilization functional assay, TAS2R50; type: cell-based; details: 1 mM, versus empty pcDNA vector
# T2 construct: first 45 amino acids of rat somatostatin type 3 receptor (SSTR3) export tag (N); expressed in transfected cells; host or cells: HEK293E
# T2 sequence (P59544 whole entry): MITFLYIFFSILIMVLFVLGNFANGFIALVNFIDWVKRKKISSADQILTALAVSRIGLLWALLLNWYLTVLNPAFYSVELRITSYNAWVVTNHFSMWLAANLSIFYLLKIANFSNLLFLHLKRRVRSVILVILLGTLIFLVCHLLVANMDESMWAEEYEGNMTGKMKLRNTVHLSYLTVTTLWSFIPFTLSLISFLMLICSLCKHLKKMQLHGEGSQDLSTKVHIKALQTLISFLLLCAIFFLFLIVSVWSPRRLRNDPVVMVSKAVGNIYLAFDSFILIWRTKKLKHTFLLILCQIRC
# From the text: as §1, §2
# [3] = target: T3, TAS2R5 (Homo sapiens, UniProt Q9NYW4); assay: Calcium mobilization functional assay, TAS2R5; type: cell-based; details: 1 mM, versus empty pcDNA vector
# T3 construct: first 45 amino acids of rat somatostatin type 3 receptor (SSTR3) export tag (N); expressed in transfected cells; host or cells: HEK293E
# T3 sequence (Q9NYW4 whole entry): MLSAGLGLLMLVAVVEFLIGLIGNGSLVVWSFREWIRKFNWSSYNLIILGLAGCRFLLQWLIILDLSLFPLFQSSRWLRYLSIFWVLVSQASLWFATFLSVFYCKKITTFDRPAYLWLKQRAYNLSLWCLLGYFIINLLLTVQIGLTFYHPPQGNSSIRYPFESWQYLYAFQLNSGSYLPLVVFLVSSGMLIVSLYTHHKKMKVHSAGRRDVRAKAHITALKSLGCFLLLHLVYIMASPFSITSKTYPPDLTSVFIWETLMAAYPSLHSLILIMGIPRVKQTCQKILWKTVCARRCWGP
# From the text: as §1, §2
# [4] = target: T4, TAS2R20 (Homo sapiens, UniProt P59543); assay: Calcium mobilization functional assay, TAS2R20 (RTP3 and RTP4 co-expressed); type: cell-based; details: 10 mM, versus empty pcDNA vector
# T4 construct: first 45 amino acids of rat somatostatin type 3 receptor (SSTR3) export tag (N); expressed in transfected cells; host or cells: HEK293E
# T4 sequence (P59543 whole entry): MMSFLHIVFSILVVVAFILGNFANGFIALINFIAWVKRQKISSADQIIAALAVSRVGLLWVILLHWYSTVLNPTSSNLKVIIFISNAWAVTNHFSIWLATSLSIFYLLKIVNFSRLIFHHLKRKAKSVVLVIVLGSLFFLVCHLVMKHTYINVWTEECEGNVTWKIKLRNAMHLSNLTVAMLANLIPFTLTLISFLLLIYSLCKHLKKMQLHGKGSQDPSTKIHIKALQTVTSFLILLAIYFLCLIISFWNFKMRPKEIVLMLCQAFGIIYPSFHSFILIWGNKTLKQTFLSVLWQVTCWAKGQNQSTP
# From the text: as §1, §2
# [5] = test system: TRPA1 receptor/channels; design: method as in PMID 21248124; details: cited from earlier work
# [6] = test system: 25 human TAS2Rs; assay: Single dose scanning of phenolic compounds on the 25 bitter taste receptors (calcium mobilization, HEK293E); type: cell-based; details: single dose 300 µM, 25 TAS2Rs, N = 2
# Description: as §1, §2
# (§3) To characterize the bitterness of olive oil phenolic compounds, we performed calcium mobilization experiments. The 25 bitter taste receptors, G protein chimera (Gα16-gus44), and the GCaMP calcium sensor[68] were transiently expressed in HEK293E cells. Twelve olive oil phenolic compounds (Fig. 1) were tested for bitter taster receptor activation (Fig. 3). […] Ligstroside aglycon, and Oleuropein aglycon activated TAS2R1, TAS2R8 and TAS2R14 receptors. To validate the single dose scanning results, we performed concentration–response experiments for all the compounds toward receptors TAS2R1, TAS2R8, and TAS2R14 that produced the most significant responses (Fig. 4).
# Figure 3 Phenolic compound bitter taste activity tests on hTAS2Rs. Relative fluorescence signals caused by phenolic compound activation of the receptors and the empty vector as a negative control. The concentration of the compounds used was [300 µM], except for Ligstroside aglycon and Oleuropein aglycon [200 µM], oleuropein that was [3 mM]. The asterisks indicate significant differences tested by one-way ANOVA (***p < 0.0001) (N = 2). Data represent mean ± SD.
# [7] = target: T5, TAS2R13 (Homo sapiens, UniProt Q9NYV9); assay: Calcium mobilization functional assay, TAS2R13; type: cell-based; details: 10 mM, versus empty pcDNA vector
# T5 construct: first 45 amino acids of rat somatostatin type 3 receptor (SSTR3) export tag (N); expressed in transfected cells; host or cells: HEK293E
# T5 sequence (Q9NYV9 whole entry): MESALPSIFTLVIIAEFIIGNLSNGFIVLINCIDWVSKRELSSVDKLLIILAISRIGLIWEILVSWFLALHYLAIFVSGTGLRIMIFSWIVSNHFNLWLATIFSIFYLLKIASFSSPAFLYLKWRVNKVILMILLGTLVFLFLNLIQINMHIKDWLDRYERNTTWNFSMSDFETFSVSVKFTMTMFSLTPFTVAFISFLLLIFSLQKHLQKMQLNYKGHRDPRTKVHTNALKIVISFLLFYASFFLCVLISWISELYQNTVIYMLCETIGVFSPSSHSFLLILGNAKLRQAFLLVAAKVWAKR
# From the text: as §1, §2
# [8] = target: TAS2R46 (Homo sapiens, UniProt P59540); details: 300 µM, versus empty pcDNA vector
# Sequence of TAS2R46 (P59540 whole entry): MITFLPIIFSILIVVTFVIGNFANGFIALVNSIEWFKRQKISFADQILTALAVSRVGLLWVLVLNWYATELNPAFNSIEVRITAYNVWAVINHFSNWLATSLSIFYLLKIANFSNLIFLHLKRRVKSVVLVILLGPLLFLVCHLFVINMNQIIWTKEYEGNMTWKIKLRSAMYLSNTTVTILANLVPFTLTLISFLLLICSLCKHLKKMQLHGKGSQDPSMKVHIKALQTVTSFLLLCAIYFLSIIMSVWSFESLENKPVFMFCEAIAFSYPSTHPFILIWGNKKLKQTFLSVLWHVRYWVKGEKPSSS
# Description: (§4) 25 human TAS2R genes were subcloned into the pcDNA 3.1 vector, as previously descripted in the literature[44],[53]. The first 45 amino acids of the rat somatostatin type 3 receptor, which serves as a cell-surface-targeting signal, were added to the N-termini of the TAS2Rs to target them more efficiently to the cell surface. Herpes simplex virus (HSV) glycoprotein D epitopes were added to the carboxy termini of the receptors for immunocytochemistry. All constructs were confirmed by DNA sequencing.
# (§5) HEK293E cells were cultured at 37 °C in DMEM (Thermo Fisher Scientific), supplemented with 10% fetal bovine serum (FBS) and 1% Penicillin Streptomycin. The cells were seeded onto 96-well plates (Clear Bottom Black Polystyrene Poly-D-Lysine Coated Microplates, Corning life sciences) at a density of 50,000 (in 100 μl DMEM) per well, and cultured at 37 °C for overnight. On the second day following seeding, the medium was changed to OPTI-MEM supplemented with 5% FBS (filtered) before co-transfection using Polyethylenimine (PEI) (1.6 μg/well) with plasmid DNAs encoding TAS2Rs (0.1 μg/well), Gα16-gust44 (0.06 μg/well) and the GCaMP calcium sensor (0.035 μg/well). After 24 h, the medium was changed to fresh OPTI-MEM supplemented with 5% FBS (filtered) and 0.1% Plasmocin (InvivoGen). […]
# [9] = target: T6, TAS2R40 (Homo sapiens, UniProt P59535); assay: Calcium mobilization functional assay, TAS2R40; type: cell-based; details: 30 µM, versus empty pcDNA vector
# T6 construct: first 45 amino acids of rat somatostatin type 3 receptor (SSTR3) export tag (N); expressed in transfected cells; host or cells: HEK293E
# T6 sequence (P59535 whole entry): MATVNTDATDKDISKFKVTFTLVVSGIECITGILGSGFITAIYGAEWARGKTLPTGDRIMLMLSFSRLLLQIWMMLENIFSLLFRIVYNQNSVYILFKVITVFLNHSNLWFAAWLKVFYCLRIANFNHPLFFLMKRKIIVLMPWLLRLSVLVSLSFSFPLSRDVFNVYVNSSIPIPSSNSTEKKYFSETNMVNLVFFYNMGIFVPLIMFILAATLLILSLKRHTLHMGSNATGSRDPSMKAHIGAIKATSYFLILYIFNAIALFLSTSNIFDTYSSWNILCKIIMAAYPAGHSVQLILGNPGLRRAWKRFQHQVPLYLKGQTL
# From the text: as §1, §2
# [10] = target: T7, TAS2R31 (Homo sapiens, UniProt P59538); assay: Calcium mobilization functional assay, TAS2R31; type: cell-based; details: 30 µM, versus empty pcDNA vector
# T7 construct: first 45 amino acids of rat somatostatin type 3 receptor (SSTR3) export tag (N); expressed in transfected cells; host or cells: HEK293E
# T7 sequence (P59538 whole entry): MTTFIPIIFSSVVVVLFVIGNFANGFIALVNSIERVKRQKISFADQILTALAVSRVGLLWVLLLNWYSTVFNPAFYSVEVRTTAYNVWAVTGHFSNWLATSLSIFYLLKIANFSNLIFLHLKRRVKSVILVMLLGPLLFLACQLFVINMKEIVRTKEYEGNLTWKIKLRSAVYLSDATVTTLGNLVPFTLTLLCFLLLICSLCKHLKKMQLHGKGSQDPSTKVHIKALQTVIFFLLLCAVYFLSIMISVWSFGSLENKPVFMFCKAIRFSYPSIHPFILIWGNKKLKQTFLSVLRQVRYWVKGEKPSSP
# From the text: as §1, §2
# [11] = target: T8, TAS2R43 (Homo sapiens, UniProt P59537); assay: Calcium mobilization functional assay, TAS2R43; type: cell-based; details: 30 µM, versus empty pcDNA vector
# T8 construct: first 45 amino acids of rat somatostatin type 3 receptor (SSTR3) export tag (N); expressed in transfected cells; host or cells: HEK293E
# From the text: as §1, §2
# [12] = target: T9, TAS2R39 (Homo sapiens, UniProt P59534); assay: Calcium mobilization functional assay, TAS2R39; type: cell-based; details: 10 mM, versus empty pcDNA vector
# T9 construct: first 45 amino acids of rat somatostatin type 3 receptor (SSTR3) export tag (N); expressed in transfected cells; host or cells: HEK293E
# T9 sequence (P59534 whole entry): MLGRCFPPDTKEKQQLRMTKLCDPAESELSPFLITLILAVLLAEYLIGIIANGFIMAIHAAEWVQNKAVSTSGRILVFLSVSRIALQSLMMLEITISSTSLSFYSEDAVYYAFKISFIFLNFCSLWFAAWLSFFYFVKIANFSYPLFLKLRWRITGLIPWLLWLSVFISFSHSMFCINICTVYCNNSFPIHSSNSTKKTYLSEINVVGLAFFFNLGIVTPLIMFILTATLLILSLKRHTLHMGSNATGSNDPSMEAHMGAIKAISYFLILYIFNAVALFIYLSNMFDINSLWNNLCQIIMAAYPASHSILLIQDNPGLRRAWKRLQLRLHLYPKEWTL
# From the text: as §1, §2
# [13] = target: T10, TAS2R41 (Homo sapiens, UniProt P59536); assay: Calcium mobilization functional assay, TAS2R41; type: cell-based; details: 1 mM, versus empty pcDNA vector
# T10 construct: first 45 amino acids of rat somatostatin type 3 receptor (SSTR3) export tag (N); expressed in transfected cells; host or cells: HEK293E
# T10 sequence (P59536 whole entry): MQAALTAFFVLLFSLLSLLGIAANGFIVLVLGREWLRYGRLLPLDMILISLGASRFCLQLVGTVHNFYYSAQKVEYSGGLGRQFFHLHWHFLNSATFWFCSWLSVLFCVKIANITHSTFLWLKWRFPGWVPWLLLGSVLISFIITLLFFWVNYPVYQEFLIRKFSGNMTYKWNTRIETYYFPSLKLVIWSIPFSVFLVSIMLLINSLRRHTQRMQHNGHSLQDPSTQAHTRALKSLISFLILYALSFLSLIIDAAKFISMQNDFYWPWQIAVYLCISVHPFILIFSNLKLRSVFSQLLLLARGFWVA
# From the text: as §1, §2
# [14] = target: T11, TAS2R8 (Homo sapiens, UniProt Q9NYW2); assay: Calcium mobilization functional assay, TAS2R8 co-expressed with Gα16-gust44 and GCaMP in HEK293E cells; type: cell-based; details: 1 mM, versus empty pcDNA vector
# T11 construct: first 45 amino acids of rat somatostatin type 3 receptor (SSTR3) export tag (N); expressed in transfected cells; host or cells: HEK293E
# T11 sequence (Q9NYW2 1-309): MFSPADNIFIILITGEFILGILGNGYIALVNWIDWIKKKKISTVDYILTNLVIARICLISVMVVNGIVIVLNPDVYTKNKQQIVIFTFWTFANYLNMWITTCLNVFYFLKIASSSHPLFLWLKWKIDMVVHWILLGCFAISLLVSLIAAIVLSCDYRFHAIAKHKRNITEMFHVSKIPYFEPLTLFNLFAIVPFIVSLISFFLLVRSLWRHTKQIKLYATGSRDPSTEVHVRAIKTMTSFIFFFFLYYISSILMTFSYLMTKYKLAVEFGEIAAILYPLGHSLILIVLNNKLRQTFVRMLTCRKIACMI
# Description: as §1, §2, §3
# [15] = target: T12, TAS2R1 (Homo sapiens, UniProt Q9NYW7); assay: Calcium mobilization functional assay, TAS2R1 co-expressed with Gα16-gust44 and GCaMP in HEK293E cells; type: cell-based; details: 1 mM, versus empty pcDNA vector
# T12 construct: first 45 amino acids of rat somatostatin type 3 receptor (SSTR3) export tag (N); expressed in transfected cells; host or cells: HEK293E
# T12 sequence (Q9NYW7 1-299): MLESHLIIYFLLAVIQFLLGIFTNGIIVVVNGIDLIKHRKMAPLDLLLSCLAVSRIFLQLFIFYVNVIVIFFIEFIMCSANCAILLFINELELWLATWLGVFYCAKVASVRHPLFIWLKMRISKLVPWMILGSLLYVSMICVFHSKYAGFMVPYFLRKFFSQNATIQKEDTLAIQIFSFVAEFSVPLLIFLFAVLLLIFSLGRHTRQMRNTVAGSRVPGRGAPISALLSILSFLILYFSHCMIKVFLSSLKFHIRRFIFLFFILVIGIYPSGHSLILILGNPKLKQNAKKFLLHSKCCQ
# Description: as §1, §2, §3
# [16] = target: T13, TAS2R3 (Homo sapiens, UniProt Q9NYW6); assay: Calcium mobilization functional assay, TAS2R3; type: cell-based; details: 10 mM, versus empty pcDNA vector
# T13 construct: first 45 amino acids of rat somatostatin type 3 receptor (SSTR3) export tag (N); expressed in transfected cells; host or cells: HEK293E
# From the text: as §1, §2
# [17] = target: T14, TAS2R7 (Homo sapiens, UniProt Q9NYW3); assay: Calcium mobilization functional assay, TAS2R7; type: cell-based; details: 10 mM, versus empty pcDNA vector
# T14 construct: first 45 amino acids of rat somatostatin type 3 receptor (SSTR3) export tag (N); expressed in transfected cells; host or cells: HEK293E
# T14 sequence (Q9NYW3 whole entry): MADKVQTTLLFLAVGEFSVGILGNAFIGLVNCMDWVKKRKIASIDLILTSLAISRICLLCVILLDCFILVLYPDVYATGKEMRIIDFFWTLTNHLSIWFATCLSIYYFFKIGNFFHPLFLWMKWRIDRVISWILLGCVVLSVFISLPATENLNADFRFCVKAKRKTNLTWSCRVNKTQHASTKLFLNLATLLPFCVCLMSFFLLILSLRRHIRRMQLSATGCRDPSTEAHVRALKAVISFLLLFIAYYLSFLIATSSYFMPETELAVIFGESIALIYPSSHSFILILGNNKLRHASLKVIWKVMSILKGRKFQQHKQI
# From the text: as §1, §2
# [18] = target: T15, TAS2R9 (Homo sapiens, UniProt Q9NYW1); assay: Calcium mobilization functional assay, TAS2R9; type: cell-based; details: 20 mM, versus empty pcDNA vector
# T15 construct: first 45 amino acids of rat somatostatin type 3 receptor (SSTR3) export tag (N); expressed in transfected cells; host or cells: HEK293E
# T15 sequence (Q9NYW1 whole entry): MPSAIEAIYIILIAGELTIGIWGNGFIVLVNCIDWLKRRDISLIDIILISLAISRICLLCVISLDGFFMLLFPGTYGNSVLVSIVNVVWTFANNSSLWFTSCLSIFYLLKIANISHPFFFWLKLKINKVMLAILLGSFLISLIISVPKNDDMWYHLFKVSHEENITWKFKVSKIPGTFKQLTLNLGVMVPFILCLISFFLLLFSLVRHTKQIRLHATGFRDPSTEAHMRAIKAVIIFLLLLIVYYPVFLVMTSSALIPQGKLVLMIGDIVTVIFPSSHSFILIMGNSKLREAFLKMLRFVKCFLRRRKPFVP
# From the text: as §1, §2
# [19] = target: T16, TAS2R30 (Homo sapiens, UniProt P59541); assay: Calcium mobilization functional assay, TAS2R30; type: cell-based; details: 300 µM, versus empty pcDNA vector
# T16 construct: first 45 amino acids of rat somatostatin type 3 receptor (SSTR3) export tag (N); expressed in transfected cells; host or cells: HEK293E
# T16 sequence (P59541 whole entry): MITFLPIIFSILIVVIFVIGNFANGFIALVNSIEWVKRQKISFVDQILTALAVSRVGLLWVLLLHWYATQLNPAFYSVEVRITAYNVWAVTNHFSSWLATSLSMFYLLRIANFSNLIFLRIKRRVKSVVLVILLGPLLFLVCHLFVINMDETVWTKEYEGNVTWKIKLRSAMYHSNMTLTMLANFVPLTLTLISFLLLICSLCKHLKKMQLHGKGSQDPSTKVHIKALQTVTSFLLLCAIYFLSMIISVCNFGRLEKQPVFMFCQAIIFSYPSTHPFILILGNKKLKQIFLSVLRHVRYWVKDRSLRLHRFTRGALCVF
# From the text: as §1, §2
# [20] = target: T17, TAS2R10 (Homo sapiens, UniProt Q9NYW0); assay: Calcium mobilization functional assay, TAS2R10; type: cell-based; details: 30 µM, versus empty pcDNA vector
# T17 construct: first 45 amino acids of rat somatostatin type 3 receptor (SSTR3) export tag (N); expressed in transfected cells; host or cells: HEK293E
# T17 sequence (Q9NYW0 whole entry): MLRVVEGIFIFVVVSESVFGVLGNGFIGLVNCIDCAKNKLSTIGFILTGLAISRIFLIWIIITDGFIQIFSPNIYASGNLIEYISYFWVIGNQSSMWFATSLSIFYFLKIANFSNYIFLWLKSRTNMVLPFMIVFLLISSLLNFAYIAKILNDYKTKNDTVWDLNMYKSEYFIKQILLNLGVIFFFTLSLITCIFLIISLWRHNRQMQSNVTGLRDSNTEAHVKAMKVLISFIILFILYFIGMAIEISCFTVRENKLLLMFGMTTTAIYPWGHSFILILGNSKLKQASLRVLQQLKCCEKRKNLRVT
# From the text: as §1, §2
# [21] = target: TAS2R38 (Homo sapiens, UniProt P59533); details: 1 mM, versus empty pcDNA vector
# Sequence of TAS2R38 (P59533 whole entry): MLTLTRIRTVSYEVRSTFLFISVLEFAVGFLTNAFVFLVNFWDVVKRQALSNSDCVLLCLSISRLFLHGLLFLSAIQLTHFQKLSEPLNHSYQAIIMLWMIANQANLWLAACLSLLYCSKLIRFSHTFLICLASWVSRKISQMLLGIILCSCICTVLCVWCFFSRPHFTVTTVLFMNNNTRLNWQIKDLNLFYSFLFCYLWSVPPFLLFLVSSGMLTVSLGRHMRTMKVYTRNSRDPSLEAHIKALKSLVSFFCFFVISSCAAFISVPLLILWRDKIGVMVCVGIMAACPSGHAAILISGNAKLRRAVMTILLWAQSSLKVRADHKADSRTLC
# Description: as §4, §5
compound,measurement,setting,value
OCc1ccccc1O[C@@H]1O[C@H](CO)[C@@H](O)[C@H](O)[C@H]1O [salicin],activation of TAS2R16,[1],activated
C=C1CC[C@@H]2[C@](C)(CO)[C@H](O)CC[C@@]2(C)[C@@H]1C/C=C1/C(=O)OC[C@H]1O [andrographolide],activation of TAS2R50,[2],activated
"c1cnc2c(c1)ccc1cccnc12 [1,10-phenanthroline]",activation of TAS2R5,[3],activated
O=C(O)c1cc(=O)c2c(OCC(O)COc3cccc4oc(C(=O)O)cc(=O)c34)cccc2o1 [cromolyn],activation of TAS2R20,[4],activated
"C/C=C(/C=O)[C@@H](CC=O)CC(=O)OCCc1ccc(O)cc1 [Oleocanthal, oleocanthal]",activation of TRPA1 receptor/channels,[5],activates
same,activation of any TAS2R,[6],did not activate any TAS2Rs
same,activation of any TAS2R,[6]; listed as oleocanthal,did not show any activation of bitter receptors; also recorded: failed to activate any TAS2Rs
CC[N+](C)(CC)CCOC(=O)C(O)(c1ccccc1)C1CCCCC1 (stereo not shown) [oxyphenonium],activation of TAS2R13,[7],activated
O=C1C[C@@H]2OCC=C3CN4CC[C@]56c7ccccc7N1[C@H]5[C@H]2[C@H]3C[C@H]46 [strychnine],activation of TAS2R46,[8],activated
CC(C)=CCC1C(=O)C(C(=O)CC(C)C)=C(O)C(O)(CC=C(C)C)C1=O (stereo not shown) [humulone],activation of TAS2R40,[9],activated
COc1cccc2c1cc([N+](=O)[O-])c1c(C(=O)O)cc3c(c12)OCO3 [aristolochic acid],activation of TAS2R31,[10],activated
same,activation of TAS2R43,[11],activated
CNC(=C[N+](=O)[O-])NCCSCc1ccc(CN(C)C)o1 [ranitidine],activation of TAS2R39,[12],activated
"O=C(N[C@H](CO)[C@H](O)c1ccc([N+](=O)[O-])cc1)C(Cl)Cl [chloramphenicol, reference compound]",activation of TAS2R41,[13],activated
same,activation of TAS2R8,[14],activated
same,activation of TAS2R1,[15],activated
CCN(CC)CCCC(C)Nc1ccnc2cc(Cl)ccc12 (stereo not shown) [chloroquine],activation of TAS2R3,[16],activated
same,activation of TAS2R7,[17],activated
CCN(CC)CCNC(=O)c1ccc(N)cc1 [procainamide],activation of TAS2R9,[18],activated
"CC[N+](CC)(CC(=O)Nc1c(C)cccc1C)Cc1ccccc1 [denatonium, denatonium benzoate]",activation of TAS2R30,[19],activated
CC(=O)OC(C)(C)/C=C/C(=O)[C@](C)(O)[C@H]1[C@H](O)C[C@@]2(C)[C@@H]3CC=C4[C@@H](C=C(O)C(=O)C4(C)C)[C@]3(C)C(=O)C[C@]12C [cucurbitacin E],activation of TAS2R10,[20],activated
"CCCc1cc(=O)[nH]c(=S)[nH]1 [PROP, 6-n-propylthiouracil]",activation of TAS2R38,[21],activated
